This is an account of results in patent US11472788B2, “Benzoimidazoles as selective inhibitors of indoleamine 2,3-dioxygenases” (BEIGENE, LTD., priority 2017, dated 2022).

The target in assay [1] is cellular IDO1 in HeLa cells (Homo sapiens (Human), UniProt P14902). The experiment in a line: HeLa Cell-Based IDO1 Kyn (Kynurenine) Production Assay. The settings on record: IFN-γ induced IDO1, 48 hours incubation, Kyn absorbance at 480 nm. The procedure, abridged:
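Compounds added to HeLa cells together with IFN-γ (100 ng/mL final) and 0.4 mM L-Trp, 48 h at 37 °C. Kynurenine in TCA-deproteinized supernatant measured colorimetrically with 4-(dimethylamino)benzaldehyde at 480 nm; IC50 from four-parameter logistic fit.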

The next assay has as its target Recombinant IDO1 (Homo sapiens (Human), UniProt P14902). In words: IDO1 enzymatic assay. Format: biochemical. To be noted: 50 nM IDO1, 1.3 mM D-tryptophan, pH 7.5, read-out: Enzyme assay IC50. On the procedure: Recombinant IDO1 was overexpressed and purified from E. coli cells with an N-terminal His tag. IDO1 enzymatic assay was carried out using a methodology similar to described in the literature (J. Biol. Chem. (1980), 255, 1339-1345). The reaction mixture contains 50 nM IDO1, 1.3 mM D-tryptophan, 5 mM L-ascorbic acid, […] methylene Blue, 0.4 mg/mL catalase and compound (or DMSO) in a buffer containing 50 mM potassium phosphate pH 7.5 and 0.1% BSA. After incubation at 24° C. for 1.5 hours, absorbance of the reaction mixture was continuously read at 321 nm to monitor the formation of N′-formylkynurenine by a FULOstar OMEGA plate reader (BMG LABTECH) for 1 hour. The enzymatic activity was determined by measuring the slope of the linear absorbance increase as a function of time. The IC50s are calculated based on remaining enzyme activity in the presence of increasing concentrations of compounds.

Each structure is given as a SMILES string. Bounds are passed on as bounds.

Sequence of cellular IDO1 in HeLa cells (P14902 whole entry): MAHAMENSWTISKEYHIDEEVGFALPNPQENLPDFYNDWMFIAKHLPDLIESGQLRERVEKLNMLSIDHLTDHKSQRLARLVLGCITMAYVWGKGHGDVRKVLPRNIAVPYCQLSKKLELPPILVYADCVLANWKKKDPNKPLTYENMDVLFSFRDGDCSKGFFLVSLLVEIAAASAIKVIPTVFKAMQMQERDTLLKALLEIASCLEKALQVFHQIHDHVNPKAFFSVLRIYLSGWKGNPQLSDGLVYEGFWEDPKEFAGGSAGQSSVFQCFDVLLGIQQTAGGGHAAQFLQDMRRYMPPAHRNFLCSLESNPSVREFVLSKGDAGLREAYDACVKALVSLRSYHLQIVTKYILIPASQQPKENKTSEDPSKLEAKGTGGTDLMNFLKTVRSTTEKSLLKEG
Sequence of Recombinant IDO1 (P14902 whole entry, species assumed): as the sequence (P14902 whole entry) above

The term EC50 denotes the midpoint of the concentration-response curve. As a reminder, the IC50 is the concentration at which inhibition is half-maximal. Compound `Fc1ccc2nccc([C@H]3CC[C@H](Cc4nc5cc(F)c(F)cc5[nH]4)CC3)c2c1` [Example A6a, 4-((1r,4r)-4-((5,6-difluoro-1H-benzo[d]imidazol-2-yl)methyl)cyclohexyl)-6-fluoroquinoline] yielded a concentration giving a half-maximal response (EC50) in assay [1] of 141 nM. The IC50 on Recombinant IDO1 was over 10000 nM. For `FC(F)(F)c1ccc2[nH]c(C[C@H]3CC[C@@H](c4ccccc4)CC3)nc2c1` [Example A33b, 2-(((1s,4s)-4-phenylcyclohexyl)methyl)-5-(trifluoromethyl)-1H-benzo[d]imidazole], in that order: 8.2 nM and 8200 nM. The corresponding values for `COc1ccc2[nH]c(CC3CCC(c4ccc5ccccc5n4)CC3)nc2c1` (stereo not drawn) [Example A21, 2-(4-((5-methoxy-1H-benzo[d]imidazol-2-yl)methyl)cyclohexyl)quinoline] are 131 nM and over 10000 nM. With `c1ccc2nc(C3CCC(Cc4nc5ccccc5[nH]4)CC3)ccc2c1` (stereo not drawn) [Example A20, 2-(4-((1H-benzo[d]imidazol-2-yl)methyl)cyclohexyl)quinoline], the EC50 in assay [1] turned out to be 89 nM. Moreover, the IC50 on Recombinant IDO1 was over 10000 nM.

In turn, `COC(=O)c1ccc2[nH]c(CC3CCC(c4ccnc5ccc(F)cc45)CC3)nc2c1` (stereo not drawn) [Example A13, methyl 2-((4-(6-fluoroquinolin-4-yl)cyclohexyl)methyl)-1H-benzo[d]imidazole-5-carboxylate] displayed an EC50 in assay [1] of 8.4 nM. Also, on Recombinant IDO1, the 50% inhibitory concentration (IC50) was over 10000 nM. The corresponding values for `Fc1ccc2nccc(C3CCN(CCc4nc5cc(Cl)ccc5[nH]4)CC3)c2c1` [Example A38, 4-(1-(2-(5-chloro-1H-benzo[d]imidazol-2-yl)ethyl)piperidin-4-yl)-6-fluoroquinoline] are 143 nM and over 10000 nM. As to `Clc1ccc2[nH]c(C[C@H]3CC[C@@H](c4ccccc4)CC3)nc2c1` [Example A34b, 5-chloro-2-(((1s,4s)-4-phenylcyclohexyl)methyl)-1H-benzo[d]imidazole], in assay [1], it took 87 nM to reach a half-maximal effect (EC50). Also, the IC50 on Recombinant IDO1 is 4800 nM. In assay [1], `Fc1ccc2nccc([C@H]3CC[C@@H](Cc4nc5cc(C6CC6)ccc5[nH]4)CC3)c2c1` [Example A4b, 4-((1s,4s)-4-((5-cyclopropyl-1H-benzo[d]imidazol-2-yl)methyl)cyclohexyl)-6-fluoroquinoline] displayed an EC50 of 13 nM. In addition, on Recombinant IDO1, the IC50 was over 10000 nM. For `O=C(O)c1ccc2[nH]c(CC3CCC(c4ccnc5ccc(F)cc45)CC3)nc2c1` (stereo not drawn) [Example A14, 2-((4-(6-fluoroquinolin-4-yl)cyclohexyl)methyl)-1H-benzo[d]imidazole-5-carboxylic acid], in assay [1], the EC50 was over 10000 nM. Moreover, on Recombinant IDO1, the IC50 was over 10000 nM. Consider `C[C@@H](c1nc2cc(C(=O)N(C)C)ccc2[nH]1)[C@H]1CC[C@@H](c2ccnc3ccc(F)cc32)CC1` [Example B12, 2-((R)-1-((1s,4S)-4-(6-fluoroquinolin-4-yl)cyclohexyl)ethyl)-N,N-dimethyl-1H-benzo[d]imidazole-5-carboxamide], for which the EC50 in assay [1] was determined as 46 nM. In assay [1], `c1ccc(C2CCC(Cc3nc4cc(C5CC5)ccc4[nH]3)CC2)cc1` (stereo not drawn) [Example A31, 5-cyclopropyl-2-((4-phenylcyclohexyl)methyl)-1H-benzo[d]imidazole] had an EC50 of 115 nM.

On to `COC(=O)c1ccc2[nH]c(C(C)C3CCC(c4ccnc5ccc(F)cc45)CC3)nc2c1` (stereo not drawn) [Example B3, methyl 2-(1-(4-(6-fluoroquinolin-4-yl)cyclohexyl)ethyl)-1H-benzo[d]imidazole-5-carboxylate], for which, in assay [1], a half-maximal response (EC50) required 1.3 nM. `Clc1ccc2[nH]c(C3C4CCC(c5ccccc5)CC43)nc2c1` (stereo not drawn) [Example A36, 5-chloro-2-(3-phenylbicyclo[4.1.0]heptan-7-yl)-1H-benzo[d]imidazole] displayed a half-maximal effective concentration (EC50) in assay [1] of 1670 nM. In assay [1], `CC(C)c1ccc2[nH]c(C[C@H]3CC[C@H](c4ccnc5ccc(F)cc54)CC3)nc2c1` [Example A5a, 6-fluoro-4-((1r,4r)-4-((5-isopropyl-1H-benzo[d]imidazol-2-yl)methyl)cyclohexyl)quinoline] displayed a half-maximal effective concentration (EC50) of 184 nM. On to `COC(=O)c1cc(C)c2nc([C@H](C)[C@H]3CC[C@@H](c4ccnc5ccc(F)cc54)CC3)[nH]c2c1` [Example B141, methyl 2-((R)-1-((1s,4S)-4-(6-fluoroquinolin-4-yl)cyclohexyl)ethyl)-4-methyl-1H-benzo[d]imidazole-6-carboxylate], for which, in assay [1], the midpoint of the response, the EC50, lay at 6.89 nM. As for `C[C@H](c1nc2c(ccc3ccccc32)[nH]1)[C@H]1CC[C@@H](c2ccnc3ccc(F)cc32)CC1` [Example B211, 2-((S)-1-((1s,4R)-4-(6-fluoroquinolin-4-yl)cyclohexyl)ethyl)-3H-naphtho[1,2-d]imidazole], in assay [1], the EC50 was determined as 1.3 nM. In turn, `Fc1ccc2nccc([C@H]3CC[C@H](c4nc5cc(Cl)ccc5[nH]4)CC3)c2c1` [Example C2a, 4-((1r,4r)-4-(5-chloro-1H-benzo[d]imidazol-2-yl)cyclohexyl)-6-fluoroquinoline] came in with a half-maximal effective concentration (EC50) in assay [1] of 74 nM. In the case of `Fc1ccc2nccc(C3CCC(c4nc5cc(Cl)c(F)cc5[nH]4)CC3)c2c1` (single isomer, unassigned) [Example C1b, 4-(4-(5-chloro-6-fluoro-1H-benzo[d]imidazol-2-yl)cyclohexyl)-6-fluoroquinoline], it took 24 nM to reach a half-maximal effect in assay [1] (EC50). As for `C[C@@H](c1nc2c(Cl)c(F)c(F)cc2[nH]1)[C@H]1CC[C@@H](c2ccnc3ccc(F)cc32)CC1` [Example B125, 4-((1S,4s)-4-((R)-1-(4-chloro-5,6-difluoro-1H-benzo[d]imidazol-2-yl)ethyl)cyclohexyl)-6-fluoroquinoline], the concentration giving a half-maximal response (EC50) in assay [1] amounted to 8.79 nM. Same read-out and setting: the value for `CC(C)OC(=O)c1ccc2nc(C(C)[C@H]3CC[C@@H](c4ccnc5ccc(F)cc54)CC3)[nH]c2c1` (stereo partly drawn) [B168] was 4.86 nM; that for `Fc1ccc2nccc([C@H]3CC[C@H](Cc4nc5cc6c(cc5[nH]4)OCO6)CC3)c2c1` [Example A7a, 6-(((1r,4r)-4-(6-fluoroquinolin-4-yl)cyclohexyl)methyl)-5H-[1,3]dioxolo[4′,5′:4,5]benzo[1,2-d]imidazole] was 87 nM; that for `C[C@@H](c1nc2cc(-c3ncccn3)ccc2[nH]1)[C@H]1CC[C@@H](c2ccnc3ccc(F)cc32)CC1` [Example B157, 6-fluoro-4-((1S,4s)-4-((R)-1-(5-(pyrimidin-2-yl)-1H-benzo[d]imidazol-2-yl)ethyl)cyclohexyl)quinoline] was 3.8 nM. The same measure, in the same setting: next, `Cc1noc(-c2ccc3[nH]c(C(C)[C@H]4CC[C@@H](c5ccnc6ccc(F)cc65)CC4)nc3c2)n1` (stereo partly drawn) [Example B217]: 1.2 nM. Same read-out and setting: the value for `COC(=O)c1ccc2nc(C(C)[C@H]3CC[C@@H](c4ccnc5ccc(F)cc54)CC3)[nH]c2c1F` (stereo partly drawn) [B191] was 1.14 nM; that for `CC(c1nc2ccc(C(=O)NC3CCC3)cc2[nH]1)[C@H]1CC[C@@H](c2ccnc3ccc(F)cc32)CC1` (stereo partly drawn) [Example B164, N-cyclobutyl-2-(1-((1s,4s)-4-(6-fluoroquinolin-4-yl)cyclohexyl)ethyl)-1H-benzo[d]imidazole-6-carboxamide] was 5.8 nM. Regarding `COC(=O)c1cc(C)c2[nH]c(C(C)C3CCC(c4ccnc5ccc(F)cc45)CC3)nc2c1` (stereo not drawn) [B177], the EC50 in assay [1] was determined as 6.9 nM. Turning to `COC(=O)c1cccc2[nH]c([C@H](C)[C@H]3CC[C@@H](c4ccnc5ccc(F)cc54)CC3)nc12` [Example B210, methyl 2-((R)-1-((1s,4S)-4-(6-fluoroquinolin-4-yl)cyclohexyl)ethyl)-1H-benzo[d]imidazole-4-carboxylate], in assay [1], the half-maximal effective concentration (EC50) is 26.6 nM.

In assay [1], `C[C@H](c1nc2cc(Cl)c(F)cc2[nH]1)[C@H]1CC[C@@H](c2ccnc3ccc(F)cc32)CC1` [Example B2b, 4-((1S,4s)-4-((R)-1-(5-chloro-6-fluoro-1H-benzo[d]imidazol-2-yl)ethyl)cyclohexyl)-6-fluoroquinoline] showed a concentration for a half-maximal effect (EC50) of 50 nM. On the same count and under the same terms, next, `Fc1cc2nc(C[C@H]3CC[C@H](c4ccc(F)c5ncccc54)CC3)[nH]c2cc1F` [Example A26a, 5-((1r,4r)-4-((5,6-difluoro-1H-benzo[d]imidazol-2-yl)methyl)cyclohexyl)-8-fluoroquinoline]: 466 nM. The same measure, in the same setting: the value for `CC(c1nc2c(F)c(F)cc(Cl)c2[nH]1)[C@H]1CC[C@@H](c2ccnc3ccc(F)cc32)CC1` (stereo partly drawn) [Example B172, 4-((1s,4s)-4-(1-(7-chloro-4,5-difluoro-1H-benzo[d]imidazol-2-yl)ethyl)cyclohexyl)-6-fluoroquinoline] was 16.4 nM; that for `Fc1ccc2[nH]c([C@H]3CC[C@@H](c4ccnc5ccc(F)cc54)CC3)nc2c1` [Example C5b, 6-fluoro-4-((1s,4s)-4-(5-fluoro-1H-benzo[d]imidazol-2-yl)cyclohexyl)quinoline] was 73 nM; that for `Cc1cc(C(=O)NC2CCC2)cc2nc([C@H](C)[C@H]3CC[C@@H](c4ccnc5ccc(F)cc54)CC3)[nH]c12` [B187] was 17.1 nM. For `CC(C)c1ccc2[nH]c(C[C@H]3CC[C@@H](c4ccnc5ccc(F)cc54)CC3)nc2c1` [Example A5b, 6-fluoro-4-((1s,4s)-4-((5-isopropyl-1H-benzo[d]imidazol-2-yl)methyl)cyclohexyl)quinoline], in assay [1], a half-maximal response (EC50) required 23 nM.
